From ChEMBL document CHEMBL1149876, “The berkeleyamides, amides from the acid lake fungus Penicillum rubrum” (J Nat Prod, 2008)
Active and inactive are the calls of the source. The calls are words filed in the database; no cut-off is given here.

Tests used:
Stromelysin-1 = Stromelysin-1 (Homo sapiens, UniProt P08254); test: Inhibition of MMP3
Caspase-1 = target: T1, Caspase-1 (Homo sapiens, UniProt P29466); test: (§1) Inhibition of caspase 1
T1 sequence (P29466 whole entry): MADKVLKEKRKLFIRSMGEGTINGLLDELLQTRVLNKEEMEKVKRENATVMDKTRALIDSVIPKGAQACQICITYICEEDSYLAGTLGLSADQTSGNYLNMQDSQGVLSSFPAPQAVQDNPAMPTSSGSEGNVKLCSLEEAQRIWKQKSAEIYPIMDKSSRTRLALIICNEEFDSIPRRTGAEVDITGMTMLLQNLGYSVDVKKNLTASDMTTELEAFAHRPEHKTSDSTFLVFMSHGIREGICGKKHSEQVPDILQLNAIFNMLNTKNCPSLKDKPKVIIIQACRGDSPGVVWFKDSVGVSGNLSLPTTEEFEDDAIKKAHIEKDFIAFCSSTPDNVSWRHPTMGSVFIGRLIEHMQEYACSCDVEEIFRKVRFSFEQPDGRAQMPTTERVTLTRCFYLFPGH

Caspase-1 (Homo sapiens) = target: T2, Caspase-1 (Homo sapiens) (UniProt P29466); test: as §1
T2 sequence (whole entry): T1 sequence (P29466 whole entry)

Row | SMILES | IC50 (Stromelysin-1) | IC50 (Caspase-1) | Activity (Stromelysin-1) | Activity (Caspase-1 (Homo sapiens))
1 | CC(C)C[C@H]1C[C@H]([C@@H](O)CC(=O)Cc2ccccc2)C(=O)N1 [BERKELEYAMIDE A] | 330 nM | 330 nM |  | 
2 | CC(=O)OC(c1ccccc1)c1cc(=O)c(C(=O)NC(=O)CC(C)C)co1 (stereo not drawn) |  |  | Active | Active
3 | CC(C)CC1(O)NC(=O)C2(OC(Cc3ccccc3)=CC2=O)C1O (stereo not drawn) [BERKELEYAMIDE D] | 610 nM | 610 nM |  | 
4 | CC(=O)OC(c1ccccc1)c1cc(=O)c(C(=O)NC(=O)CC(C)C)cn1CCO (stereo not drawn) |  |  | Active | Active
